Reference: PMC7796460, “Relation of Metal-Binding Property and Selective Toxicity of 8-Hydroxyquinoline Derived Mannich Bases Targeting Multidrug Resistant Cancer Cells” (Cancers, 2021)

Columns and labels:
NCI-ADRres cells = test: MTT viability assay, NCI-ADRres; type: cell-based; conditions: for IC50: Homo sapiens, NCI/ADR-RES, 72 h, MTT 72 h; for SR NCI-ADRres: IC50 OVCAR-8 vs. NCI-ADRres
Excerpt: (§1) MDCK II canine kidney cells, A431 epidermoid carcinoma cells, the human uterine sarcoma cell lines MES-SA and the doxorubicin selected MES-SA-Dx5 were obtained from ATCC (MDCK II: No. CRL-2936™, A431: No. CRL-1555™, MES-SA: No. CRL-1976™, MES-SA/Dx5: No. CRL-1977™). ABCB1 was expressed in A431 and MES-SA cells using lentiviral transduction. The human cervix carcinoma cell line KB-3-1 and the vinblastine selected KB-v1were kind gifts from Dr. Michael M. Gottesman, National Institutes of Health. The phenotype of the resistant cells was verified using cytotoxicity assays. MDCK-B1 and MDCK-MM were established by the Sleeping Beauty transposon-based gene delivery system. OVCAR-8 and NCI-ADRres cells (obtained from the Division of Cancer Treatment and Diagnosis (DCTD) Tumor Repository (National Cancer Institute, Frederick, MD, USA)) were cultivated in RPMI-1640 (Sigma Aldrich, Budapest, Hungary), and other cell lines were cultivated in Dulbecco’s Modified Eagle Medium (DMEM, Sigma Aldrich, Budapest, Hungary), supplemented with 10% fetal bovine serum, 5 mM glutamine, and 50 unit/mL penicillin and streptomycin (Life Technologies, Carlsbad, CA, USA). All cell lines were cultivated at 37 °C, 5% CO2.
(§2) MTT viability assays were performed as described earlier with minor modifications. Briefly, cells were seeded into 96-well tissue culture plates (Sarstedt, Newton, NC, USA/Orange, Braine-l’Alleud, Belgium) at a density of 5000 cells/well and allowed to attach overnight. Test compounds were added to achieve the required final concentration in a final volume of 100 µL per well. After an incubation period of 72 h, the supernatant was removed and fresh medium containing the MTT reagent (0.083 mg/mL) was added. Incubation with MTT at 37 °C was terminated after 1 h by removing the supernatant and lysing the cells with 100 µL DMSO per well. Viability of the cells was measured spectrophotometrically based on the absorbance values at 540 nm using either a Perkin Elmer Victor X3 or an EnSpire microplate reader. Data were background corrected by subtraction of the signal obtained from unstained cell lysates and normalized to untreated cells. Curves were fitted by Prism software (GraphPad Software Inc., San Diego, CA, USA) using the sigmoidal dose-response model (comparing variable and fixed slopes). […] Significance was calculated using unpaired t-tests; results are given as *: p ≤ 0.05, **: p ≤ 0.01, ***: p ≤ 0.001, ****: p ≤ 0.0001.

A431-B1 cells = test: MTT viability assay, A431-B1; type: cell-based; conditions: for IC50: 72 h, MTT 72 h
Excerpt: as §1, §2

MDCK-B1 cells = test: MTT viability assay, MDCK-B1 (wild-type Pgp); type: cell-based, canine; conditions: for IC50: Canis lupus familiaris, 72 h, MTT 72 h
Excerpt: as §1, §2

A431 cells = test: MTT viability assay, A431; type: cell-based; conditions: Homo sapiens, A-431, 72 h, MTT 72 h
Excerpt: as §1, §2

MES-SA/B1 cells = test: TXRF intracellular iron levels, MES-SA/B1; type: cell-based, human; conditions: for Intracellular iron levels: MES-SA/B1, 25 µM holo-transferrin 4 h, then 5 µM ligand 8 h (Figure 4A)
Protocol: Cells were seeded to 6-well plates in a density of 1.5 Mio cells/well and allowed to attach overnight. Following a washing step with phosphate buffered saline (PBS), cells were incubated in serum free DMEM. For the iron-level measurements, cells were preloaded with 25 µM holo-transferrin for 4 h and, after a washing step with serum free DMEM, cells were incubated with 5 µM of each ligand for 8 h. For the detection of copper levels, cells were treated with 1 µM of the ligands in the presence of 5 µM CuCl2 for 4 h. Following incubation, cells were harvested upon trypsination, washed twice with PBS, counted and the resulting pellets were digested in 20 μL of 30% H2O2, 80 μL of 65% HNO3. 10 μL of 15 µg/mL Ga(NO3)3 (in nitric acid) was added as an internal standard upon digestion for 24 h at room temperature. From the resulting solutions, 2 μL were pipetted on the quartz reflectors used for total-reflection X-ray fluorescence (TXRF) analysis. For the determination of the intracellular Cu content, the TXRF method was used as previously reported. Briefly, all determinations were performed on an Atomika 8030C TXRF spectrometer (Atomika Instruments GmbH, Oberschleissheim, Germany). The stock solution of 1000 mg/L Ga was purchased from Merck (Darmstadt, Germany). The Kα line used for determination of Fe and Cu were at 6.403 and 8.047 keV. […] Significance was calculated using unpaired t-tests; results are given as *: p ≤ 0.05, **: p ≤ 0.01, ***: p ≤ 0.001, ****: p ≤ 0.0001.
Figure 4 Effect of the compounds on intracellular metal levels. (A) Iron levels of MES-SA (open columns) and MES-SA/B1 cells in absence (dark red squared columns) and presence of Pgp inhibitor Tariquidar (bright red squared columns). Cells were loaded with 25 µM holo-transferrin (4 h), followed by an incubation (8 h) without (ctr) or with 5 µM of ligands Q-1, Q-2, Q-3, and Q-4. […] (B) Cellular copper levels measured following a 4 h co-administration of compounds Q-1, Q-2, Q-3, and Q-4 (1 µM) and CuCl2 (5 µM) in MES-SA (open columns), MES-SA/Dx5 (filled columns) and MES-SA-B1 (squared columns) cells. Significance is given as *: p ≤ 0.05, **: p ≤ 0.01, ***: p ≤ 0.001.

[1] = presence of 1 µM Tariquidar (values in brackets)
[2] = presence of 1 µM Tariquidar (brackets)
[3] = IC50 A431 vs. A431-B1, absence of Tariquidar
[4] = IC50 A431 vs. A431-B1, presence of 1 µM Tariquidar (brackets)
[5] = IC50 MDCK vs. MDCK-B1, absence of Tariquidar
[6] = IC50 MDCK vs. MDCK-B1, presence of 1 µM Tariquidar (brackets)

Row | Compound | IC50 (NCI-ADRres cells; absence of Tariquidar) | IC50 (NCI-ADRres cells; [1]) | SR NCI-ADRres (NCI-ADRres cells; absence of Tariquidar) | SR NCI-ADRres (NCI-ADRres cells; [2]) | IC50 (A431-B1 cells; absence of Tariquidar) | IC50 (A431-B1 cells; [1]) | SR A431-B1 (A431-B1 cells; [3]) | SR A431-B1 (A431-B1 cells; [4]) | IC50 (MDCK-B1 cells; absence of Tariquidar) | IC50 (MDCK-B1 cells; [1]) | SR MDCK-B1 (MDCK-B1 cells; [5]) | SR MDCK-B1 (MDCK-B1 cells; [6]) | IC50 (A431 cells; absence of Tariquidar) | IC50 (A431 cells; [1]) | Intracellular iron levels (MES-SA/B1 cells) | Intracellular iron depletion in the presence of the Pgp inhibitor TQ (MES-SA/B1 cells; MES-SA/B1, 5 µM ligand 8 h, with Tariquidar)
1 | Oc1cccc2cccnc12 [Compound Q-1, 8-Hydroxyquinoline] | 1.84 ± 0.3 µM | 2.65 µM | 1.88 | 1.29 | 8.21 ± 4.04 µM | 7.06 µM | 0.31 | 0.41 | 4.58 ± 1.75 µM | 15.2 µM | 0.71 | 0.20 | 2.35 ± 0.92 µM | 2.9 µM | negligible | 
2 | Oc1c(CNCc2ccccc2F)cc(Cl)c2cccnc12 [Compound Q-4, 5-chloro-7-((2-fluorobenzylamino)methyl)quinolin-8-ol] | 0.14 ± 0.07 µM | 1.15 µM | 7.84 |  | 2.57 ± 0.56 µM | 7.95 µM |  |  | 0.89 ± 0.35 µM | 6.95 µM | 5.13 | 0.85 | 5.82 ± 1.15 µM | 4.54 µM | marked, selective iron depletion | abrogated
3 | Oc1c(CN2CCCCC2)ccc2cccnc12 [Compound Q-3, 7-(piperidin-1-ylmethyl)quinolin-8-ol] | 0.68 ± 0.09 µM | 4.22 µM | 4.60 | 0.88 | 1.14 ± 0.16 µM | 5.58 µM | 3.96 | 0.73 | 3.22 ± 1.02 µM | 12.4 µM | 2.36 | 0.82 | 3.91 ± 0.83 µM | 4.09 µM | drop of intracellular iron levels below baseline levels | 
4 | Oc1c(CN2CCOCC2)ccc2cccnc12 [Compound Q-2, 7-(morpho-lino-methyl)quinolin-8-ol] | 2.84 ± 0.81 µM | 5.41 µM | 1.11 | 0.61 | 4.05 ± 1.86 µM | 7.64 µM | 0.82 | 0.42 | 12 ± 7.84 µM | 12.1 µM | 0.76 | 0.92 | 3.31 ± 1.61 µM | 3.18 µM |  | 
